Assay results reported in patent US20250222028A1, “ENGINEERED IMMUNE CELL PLATFORM” (Cancer Research Technology Limited, priority 2022, published 2025).

What was measured:
MC38-Ova tumour = experiment: Adoptive transfer of agonist-treated OTI T cells into MC38-Ova tumour bearing Rag2 KO mice, Cleaved Caspase 3 immunohistochemistry; assay type: in vivo; conditions: T cells re-stimulated in vitro with agonist before transfer; tumours excised 24 hours after transfer
Procedure: FIG. 13. […] Cytotoxic OTI T cells were re-stimulated in vitro in the presence of FPL 64176 or carrier control before adoptive transfer into MC38-Ova tumour bearing Rag2 KO mice via tail vein injection. 24 hours after the adoptive transfer, tumours were excised and analysed by immunohistochemistry for Cleaved Caspase 3 (A). 3 mice per condition, % CC3 over whole tumour area from all mice. (B) Repeat experiment with 3-4 mice per condition. Each data point represents the average CC3 staining of 3 separate tumour sections. Overall CC3 staining (top panel) and weak, moderate, and strong CC3 staining (bottom row), respectively, are shown.
As described above, the present invention may find use in adoptive transfer. To investigate the applicability of Cav channel agonist treatment in an adoptive transfer treatment regime, cytotoxic OTI T cells were re-stimulated in vitro in the presence of FPL 64176 or carrier control before adoptive transfer into MC38-Ova tumour bearing Rag2 KO mice via tail vein injection. 24 hours after the adoptive transfer, tumours were excised and analysed by immunohistochemistry for Cleaved Caspase 3. FIGS. 13A&B indicate that treatment of tumour-specific T cells with a Cav channel agonist prior to adoptive transfer leads to increased tumour cell killing compared to adoptive transfer with T cells that have not been treated with a Cav channel agonist.

P815 target cells = experiment: VITAL cytotoxicity assay, human CD8+ CTLs with P815 target cells; assay type: cell-based; conditions: 10 μM, pre-incubation 40-50 mins, vs carrier control
Procedure: FIG. 3. L-type Cav channel agonists increase expression of GLI1 and enhance specific cell killing by human CD8+ CTLs. Naïve human CD8+ T cells were purified from the buffy coat layer of blood isolated from healthy donors, and were stimulated using ImmunoCult™ CD3/CD28/CD2 human T-Cell Activator and again restimulated at day 10 for 3 days. (A) Human CTLs were restimulated on day 15-20 for 24 h with plate-bound anti-CD3 in the presence of 10 μM of FPL64176 or carrier control before RNA was extracted for qRT-PCR analysis. n=1 healthy donor. TBP is used as a reference gene. (B) Updated graph of (A) showing n=3 independent experiments/healthy donors. Gli1 expression is normalised to carrier. (C) Between day 16 and 24, CD8+ T cells were co-cultured with P815 target cells at indicated effector to target ratios and subjected to a VITAL cytotoxicity assay in the presence of 10 μM FPL64176 (squares) or carrier control (circles). (D) Same data as (C) represented differently. […] Error bars indicate SD. p values were calculated using an unpaired two-tailed Student's t test (B) or a two-way ANOVA (C/D). * indicates p<0.05, ** indicates p<0.01, **** indicates p<0.0001.
A VITAL assay was subsequently performed to assess the role of L-type Cav agonists with regards to specific tumour cell killing by human CD8+ CTLs. […]

[1] = tested on: L-type voltage gated Ca^2+ channel; experiment: Calcium flux after TCR crosslinking in murine CD8+ CTLs; assay type: cell-based
Excerpt: FIG. 14. […] Murine CD8^+ CTLs were loaded with Calcium Sensor Dye eFluor™ 514, anti-CD3ε antibodies and calcium channel inhibitors/agonist. Other Calcium channels expressed in CD8 T cells were inhibited: “Block”=BTP2 inhibits CRAC channels downstream of the TCR, and BCTC inhibits TRPV channels. […] T cell receptor (TCR) crosslinking was induced 30 s after the start of sample acquisition by adding antibodies to crosslink the TCR. Arrows indicate the initiation of the calcium flux following TCR crosslinking. The line indicates the baseline fluorescence of the Calcium Sensor Dye eFluor™ 514. Data shown is representative of two independent experiments.

## COC(=O)c1c(C)[nH]c(C)c1C(=O)c1ccccc1Cc1ccccc1 [FPL 64176]
MC38-Ova tumour
  tumour cell death in vivo (Cleaved Caspase 3 staining): increased tumour cell death
P815 target cells
  improvement of cell killing: ~70%
[1]
  initiation of Ca^2+ flux following TCR crosslinking: accelerates
[1]; CRAC and TRPV channels blocked with BTP2 and BCTC
  Cav-mediated Ca^2+ flux: specifically increases
